Source: PMC7044277 (Nature Communications, 2020)
Several values for one entry are separate records, joined by “and”; a condition that tells them apart may be missing. Equal entries are not always repeated.

How the values were obtained:
[1] = molecular target: DRD2 (D2 long receptor) (Homo sapiens, UniProt P14416); experiment: Gαi/o-mediated cAMP inhibition (GloSensor split-luciferase cAMP reporter), HEK293T; assay type: cell-based; details: DRD2;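 further: compounds applied 15 min at room temperature, then luciferin plus 400 nM isoproterenol to raise cAMP through endogenous β2-adrenergic receptors, luminescence read 15 min later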
[2] = molecular target: DRD3 (Homo sapiens, UniProt P35462); experiment: Gαi/o-mediated cAMP inhibition (GloSensor); assay type: cell-based; details: DRD3, cAMP inhibition
[3] = molecular target: DRD5 (Homo sapiens, UniProt P21918); experiment: β-arrestin2 recruitment (Tango); assay type: cell-based; details: Fig_S10e, single replicates
[4] = molecular target: 5HT2A (Homo sapiens, UniProt P28223); experiment: β-arrestin2 recruitment (Tango); assay type: cell-based; details: single replicate values
[5] = test system: serotonin receptor of Fig_S10h (subtype not given); experiment: β-arrestin2 recruitment (Tango), agonist activity, source data Fig_S10h; assay type: cell-based, human; details: drug alone
[6] = test system: serotonin receptor of Fig_S10i (subtype not given); experiment: β-arrestin2 recruitment (Tango), agonist activity, source data Fig_S10i; assay type: cell-based, human; details: drug alone
[7] = molecular target: DRD2 F1103.28A (Homo sapiens, UniProt P14416, F110A); experiment: Gαi/o-mediated cAMP inhibition (GloSensor), mutant; assay type: cell-based; design: expressed in transfected cells; host or cells: HEK293T (ATCC CRL-11268)
DRD2 F1103.28A, sequence (P14416 whole entry F110A): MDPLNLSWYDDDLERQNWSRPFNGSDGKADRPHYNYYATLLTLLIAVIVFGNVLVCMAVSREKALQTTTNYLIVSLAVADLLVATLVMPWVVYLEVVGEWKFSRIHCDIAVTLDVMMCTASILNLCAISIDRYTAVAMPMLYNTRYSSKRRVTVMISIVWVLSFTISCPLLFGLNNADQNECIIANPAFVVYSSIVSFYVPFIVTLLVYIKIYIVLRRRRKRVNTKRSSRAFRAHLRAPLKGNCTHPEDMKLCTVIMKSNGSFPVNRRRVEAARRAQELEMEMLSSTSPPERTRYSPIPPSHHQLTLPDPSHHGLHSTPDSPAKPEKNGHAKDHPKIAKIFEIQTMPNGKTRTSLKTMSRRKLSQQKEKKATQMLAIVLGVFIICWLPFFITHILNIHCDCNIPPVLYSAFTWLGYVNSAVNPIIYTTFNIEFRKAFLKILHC

5HT2A, sequence (P28223 whole entry): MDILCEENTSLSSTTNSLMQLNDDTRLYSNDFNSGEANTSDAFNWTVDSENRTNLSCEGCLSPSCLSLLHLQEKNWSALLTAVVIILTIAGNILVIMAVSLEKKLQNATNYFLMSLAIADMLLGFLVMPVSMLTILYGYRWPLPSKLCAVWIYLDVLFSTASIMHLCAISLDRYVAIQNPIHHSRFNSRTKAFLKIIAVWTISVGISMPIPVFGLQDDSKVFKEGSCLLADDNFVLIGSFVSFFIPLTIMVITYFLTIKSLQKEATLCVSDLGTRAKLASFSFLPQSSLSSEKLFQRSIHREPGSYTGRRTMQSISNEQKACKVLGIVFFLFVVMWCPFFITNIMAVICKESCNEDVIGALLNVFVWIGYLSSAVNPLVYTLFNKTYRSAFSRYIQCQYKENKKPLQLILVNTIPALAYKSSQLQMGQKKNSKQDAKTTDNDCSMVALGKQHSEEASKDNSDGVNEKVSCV
DRD2 (D2 long receptor), sequence (P14416 whole entry): as the sequence (P14416 whole entry F110A) above, with A110F counted along it
DRD5, sequence (P21918 whole entry): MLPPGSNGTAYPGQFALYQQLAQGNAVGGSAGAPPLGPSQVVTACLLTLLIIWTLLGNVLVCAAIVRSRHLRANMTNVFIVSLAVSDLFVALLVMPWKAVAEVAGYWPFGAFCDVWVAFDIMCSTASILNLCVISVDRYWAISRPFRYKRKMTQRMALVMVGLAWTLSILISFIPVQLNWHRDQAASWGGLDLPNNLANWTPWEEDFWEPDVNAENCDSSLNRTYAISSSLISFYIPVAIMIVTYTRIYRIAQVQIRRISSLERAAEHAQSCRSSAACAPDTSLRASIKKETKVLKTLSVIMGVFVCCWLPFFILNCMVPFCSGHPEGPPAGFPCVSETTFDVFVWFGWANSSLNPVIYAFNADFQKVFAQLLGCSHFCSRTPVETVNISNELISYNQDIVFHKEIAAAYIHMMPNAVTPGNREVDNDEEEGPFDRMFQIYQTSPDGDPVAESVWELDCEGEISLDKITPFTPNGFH
DRD3, sequence (P35462 whole entry): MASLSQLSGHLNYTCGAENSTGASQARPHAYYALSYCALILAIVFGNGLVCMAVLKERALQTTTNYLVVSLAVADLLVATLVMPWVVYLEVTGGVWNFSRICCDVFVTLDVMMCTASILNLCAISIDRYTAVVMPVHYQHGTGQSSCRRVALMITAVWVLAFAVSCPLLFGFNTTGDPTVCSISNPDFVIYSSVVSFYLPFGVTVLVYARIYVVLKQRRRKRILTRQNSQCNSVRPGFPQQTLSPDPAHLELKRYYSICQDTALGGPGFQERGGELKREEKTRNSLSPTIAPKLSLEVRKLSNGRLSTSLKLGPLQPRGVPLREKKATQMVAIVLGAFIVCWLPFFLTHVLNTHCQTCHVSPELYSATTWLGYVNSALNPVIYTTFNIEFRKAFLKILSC

## CCOc1cccc2cc([C@H](C)NCC3(O)CCCCC3)oc12 [O4SE6]
[1]; agonist, Gαi/o-mediated cAMP inhibition, read-out: EC50 ± SEM
  EC50: 0.0185 µM
[1]; cAMP inhibition
  G protein agonist activity: selective DRD2 agonist
[1]; HEK-293T, read-out: Emax relative to quinpirole response, cAMP inhibition
  Emax: 91.9%
[2]; agonist, read-out: EC50 ± SEM
  EC50: > 10 µM
[2]
  G protein agonist activity: no detectable agonist activity
[3]; Log[Drug] -6.52
  β-arrestin2 recruitment response, agonist mode (normalized): -0.08982
[3]; Log[Drug] -7
  β-arrestin2 recruitment response, agonist mode (normalized): -2.193 and 0.1162 and 2.002 and 1.631 and 1.978 and 0.5459 and 0.4001 and 1.786 and 0.382
[3]; Log[Drug] -7.52
  β-arrestin2 recruitment response, agonist mode (normalized): -0.08982 and 3.931 and 2.6523 and 1.599 and 1.463 and 1.719 and -0.1199 and 3.905 and 0.3346
[3]; Log[Drug] -8
  β-arrestin2 recruitment response, agonist mode (normalized): -0.07925 and -1.147 and -0.7291 and 1.435 and 1.941 and 1.528 and 1.952 and 2.3308 and 0.6078
[3]; Log[Drug] -8.52
  β-arrestin2 recruitment response, agonist mode (normalized): -0.1004 (2×) and 1.601 and 1.441 and 1.882 and 1.748 and 1.175 and 1.334 and 1.6784
[3]; Log[Drug] -9
  β-arrestin2 recruitment response, agonist mode (normalized): 3.899 and 5.394 and 1.786 and 1.099 and 0.04193 and 2.45 and 0.1533 and 0.5646 and 0.6189
[3]; Log[Drug] -9.52
  β-arrestin2 recruitment response, agonist mode (normalized): 2.219 and 0.0951 and 1.997 and 0.5791 and 1.124 and 2.067 and 5.639 and 0.941 and -0.06273
[3]; Log[Drug] -10
  β-arrestin2 recruitment response, agonist mode (normalized): -0.7133 and 0.5389 and 5.595 and 1.6 and 2.167 and 2.288 and 0.7068 and 0.5423 and 3.676
[3]; Log[Drug] -10.52
  β-arrestin2 recruitment response, agonist mode (normalized): 0.1321 and 0.1268 and 0.9299 and 1.442 and 0.235 and 1.403 and 0.9967 and 3.2411 and 1.093
[3]; Log[Drug] -11
  β-arrestin2 recruitment response, agonist mode (normalized): 0.1268 and 0.1004 and 7.307 and 0.5831 and 0.6598 and 1.285 and 1.949 and 0.03067 and 2.569
[3]; Log[Drug] -11.52
  β-arrestin2 recruitment response, agonist mode (normalized): 3.508 and 1.358 and 1.781 and 0.8196 and 0.1076 and 1.003 and 0.8127 and 3.51 and 1.499
[3]; Log[Drug] -12
  β-arrestin2 recruitment response, agonist mode (normalized): -0.3064 and 5.8435 and 1.717 and 0.4312 and 3.455 and 0.3038 and 0.3541 and 3.032 and 0.3527
[4]; Log[Drug] -6.52
  Fig_S10k dose-response, drug alone (agonist mode), β-arrestin2 recruitment: 0.09538
[4]; Log[Drug] -7
  Fig_S10k dose-response, drug alone (agonist mode), β-arrestin2 recruitment: 0.3962 and -0.2054 (2×) and 5.128 and 7.247 and 2.453 and 3.603 and 2.6312 and 1.871
[4]; Log[Drug] -7.52
  Fig_S10k dose-response, drug alone (agonist mode), β-arrestin2 recruitment: 1.849 and 5.363 and 7.4248 and 2.33 and -2.369 and -1.196 and 2.4436 and 3.608 and 1.304
[4]; Log[Drug] -8
  Fig_S10k dose-response, drug alone (agonist mode), β-arrestin2 recruitment: 0.1101 and -1.394 and 0.08804 and 0.4387 and -1.323 and -0.5329 and 3.218 and 3.021 and 2.073
[4]; Log[Drug] -8.52
  Fig_S10k dose-response, drug alone (agonist mode), β-arrestin2 recruitment: 0.3815 and 3.632 and -0.1981 and 19.2051 and 7.825 and 6.317 and 2.439 and 3.208 and 2.251
[4]; Log[Drug] -9
  Fig_S10k dose-response, drug alone (agonist mode), β-arrestin2 recruitment: 0.6676 and 2.15 and 0.4035 and 0.1625 and 2.551 and 3.851 and 2.828 and 4.478 and 2.251
[4]; Log[Drug] -9.52
  Fig_S10k dose-response, drug alone (agonist mode), β-arrestin2 recruitment: 4.806 and 0.08804 and -0.4842 and 4.631 and 0.2307 and -0.1755 and 1.9722 and 24.5707 and 1.991
[4]; Log[Drug] -10
  Fig_S10k dose-response, drug alone (agonist mode), β-arrestin2 recruitment: -0.2054 and -0.7704 and 0.7117 and -0.5849 and 0.2632 and -1.306 and 3.401 and 3.333 and 0.9043
[4]; Log[Drug] -10.52
  Fig_S10k dose-response, drug alone (agonist mode), β-arrestin2 recruitment: -0.4696 and 0.1247 and -0.7704 and 2.297 and 0.5134 and 0.234 and 6.104 and 1.842 and 5.349
[4]; Log[Drug] -11
  Fig_S10k dose-response, drug alone (agonist mode), β-arrestin2 recruitment: -0.4842 and -0.7704 and -1.0785 and -0.00325 and -1.534 and 4.039 and 3.002 and 2.646 and 1.477
[4]; Log[Drug] -11.52
  Fig_S10k dose-response, drug alone (agonist mode), β-arrestin2 recruitment: -0.2421 and 0.9685 and 5.092 and -0.6109 and 22.6335 and -1.787 and 6.47 and 2.973 and 3.016
[4]; Log[Drug] -12
  Fig_S10k dose-response, drug alone (agonist mode), β-arrestin2 recruitment: 13.3089 and 0.9391 and 1.555 and -1.157 and -0.9684 and -1.794 and 7.23 and 11.8669 and 5.71
[5]; Log[Drug] -6.52
  response, single replicates of the concentration-response curve: -7.994
[5]; Log[Drug] -7
  response, single replicates of the concentration-response curve: -2.807 and 4.395 and 8.664 and 27.4134 and 13.2513 and 15.6474 and 13.1242 and -2.417 and -10.8222
[5]; Log[Drug] -7.52
  response, single replicates of the concentration-response curve: 4.715 and -8.828 and -5.606 and 8.395 and 8.216 and 0.5126 and 3.51 and 4.446 and -3.1317
[5]; Log[Drug] -8
  response, single replicates of the concentration-response curve: 0.3826 and 12.2654 and 8.146 and 2.179 and 0.2337 and 9.5034 and -12.0593 and 26.3744 and -3.5174
[5]; Log[Drug] -8.52
  response, single replicates of the concentration-response curve: -10.0653 and -1.2658 and 52.2148 and 23.8014 and -4.094 and -12.033 and 16.826 and 7.508 and 15.8147
[5]; Log[Drug] -9
  response, single replicates of the concentration-response curve: 1.557 and 9.933 and -1.226 and 2.422 and 13.6662 and 4.675 and -4.947 and 1.153 and 3.825
[5]; Log[Drug] -9.52
  response, single replicates of the concentration-response curve: -5.148 and -10.9982 and -7.97 and 11.3845 and 16.9421 and 5.655 and -4.275 and -6.8476 and 18.2512
[5]; Log[Drug] -10
  response, single replicates of the concentration-response curve: 15.0958 and 7.486 and 10.8542 and 5.527 and 29.223 and 0.999 and -10.921 and 11.0828 and -0.8457
[5]; Log[Drug] -10.52
  response, single replicates of the concentration-response curve: -0.8745 and -6.646 and -1.622 and 20.5398 and 42.3766 and 10.7909 and -7.069 and -20.3001 and 10.2879
[5]; Log[Drug] -11
  response, single replicates of the concentration-response curve: -11.3698 and 19.5825 and 1.391 and 36.9549 and 6.363 and -10.581 and 12.6585 and -12.9389 and 3.331
[5]; Log[Drug] -11.52
  response, single replicates of the concentration-response curve: -4.741 and 3.94 and 12.3959 and 19.2666 and -9.551 and -8.707 and 10.8288 and -0.4553 and -7.722
[5]; Log[Drug] -12
  response, single replicates of the concentration-response curve: -3.8669 and -1.214 and 2.909 and 15.2183 and 14.2098 and -8.421 and -4.75 and -12.1063 and 12.6538
[6]; Log[Drug] -11.52
  response, single replicates of the concentration-response curve: -11.574 and -4.3 and 8.5185 and 5.043 and 17.6989 and -6.28 and -5.544 and 6.734 and -5.212
[6]; Log[Drug] -12
  response, single replicates of the concentration-response curve: -1.958 and 0.9753 and 5.65 and 9.245 and 10.4038 and -4.648 and 6.652 and -2.743 and 7.282
[7]
  EC50: > 10 µM
